# Laboratory results taken from patent US20210221866A1, “PROTEASE-RESISTANT LIPIDATED GLP-1 ANALOGS” (MEDIMMUNE LIMITED, priority 2015, published 2021).
# pEC50: −log10 of the molar value. Where two headings read alike, the source gives them in different places. Numbered stars: 1 amine (or outer) side, 2 acyl side, 3 side chain; on linkers, the order of the positions; unused ones are H or OH. Square brackets hold non-standard residues; d marks the D form. Side chains are listed from the residue outwards. Peptide text beside a SMILES is read from it. * marks the point of attachment. γGlu = O=C(O)[C@H](CCC(=O)[*:2])N[*:1]; αMeF = C[C@](N)(Cc1ccccc1)C(=O)O; αMeK = C[C@](N)(CCCCN)C(=O)O; Lauroyl = CCCCCCCCCCCC(=O)*; αMeS = C[C@](N)(CO)C(=O)O; AEEA = NCCOCCOCC(=O)O; Aib = CC(C)(N)C(=O)O
# Target: T1, human GLP-1 receptor (GLP-1R) (Homo sapiens, UniProt P43220)
# T1 construct: expressed in transfected cells; host or cells: HEK293 cells or CHO cells
# Test: cAMP assay, human GLP-1R cells
# Format: cell-based
# Details: Table 11, tris-lipidated peptides; for EC50: mean of n1 and n2, read-out: Primary assay EC50 Mean pM GLP-1R
# How it was run: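 Peptide-stimulated cAMP measured by two-step HTRF after a 30 min room-temperature incubation with receptor-expressing cells (hGLP-1R, hGIPR at 1×10^5 cells/ml; hGCGR at 2×10^5 cells/ml). Duplicate dilutions; EC50 from 4-parameter logistic fit of % Delta F.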
# [1] = replicate n1, read-out: Primary assay EC50 GLP-1R n1
# [2] = replicate n2, read-out: Primary assay EC50 GLP-1R n2
# T1 sequence (P43220 24-463): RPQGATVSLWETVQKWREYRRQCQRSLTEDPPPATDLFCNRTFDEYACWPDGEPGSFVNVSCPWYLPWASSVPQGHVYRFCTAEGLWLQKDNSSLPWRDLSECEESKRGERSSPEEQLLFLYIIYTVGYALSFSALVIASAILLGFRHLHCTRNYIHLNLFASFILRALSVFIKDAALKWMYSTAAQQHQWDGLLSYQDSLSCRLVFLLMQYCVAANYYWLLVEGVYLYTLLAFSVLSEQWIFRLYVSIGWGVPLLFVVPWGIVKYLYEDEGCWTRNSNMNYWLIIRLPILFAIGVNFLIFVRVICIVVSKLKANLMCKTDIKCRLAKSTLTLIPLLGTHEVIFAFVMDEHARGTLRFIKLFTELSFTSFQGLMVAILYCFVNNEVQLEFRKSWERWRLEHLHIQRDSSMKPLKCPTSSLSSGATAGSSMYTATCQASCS
Structure (SMILES),EC50 [pM],pEC50 [1],pEC50 [2]
CCCCCCCCCCCC(=O)N[C@@H](CCC(=O)NCCOCCOCC(=O)NCCOCCOCC(=O)NCCCC[C@H](NC(=O)[C@H](C)NC(=O)[C@@H](NC(=O)[C@H](Cc1ccccc1)NC(=O)[C@H](CCC(=O)O)NC(=O)[C@](C)(CCCCN)NC(=O)[C@H](C)NC(=O)[C@H](CCCCNC(=O)COCCOCCNC(=O)COCCOCCNC(=O)CC[C@H](NC(=O)CCCCCCCCCCC)C(=O)O)NC(=O)[C@H](CCC(=O)O)NC(=O)CNC(=O)[C@H](CCC(=O)O)NC(=O)[C@H](CC(C)C)NC(=O)[C@H](Cc1ccc(O)cc1)NC(=O)[C@H](CO)NC(=O)[C@H](CO)NC(=O)[C@H](CCCCNC(=O)COCCOCCNC(=O)COCCOCCNC(=O)CC[C@H](NC(=O)CCCCCCCCCCC)C(=O)O)NC(=O)[C@H](CC(=O)O)NC(=O)[C@H](CO)NC(=O)[C@@H](NC(=O)[C@](C)(Cc1ccccc1)NC(=O)[C@H](CO)NC(=O)CNC(=O)[C@H](CCC(=O)O)NC(=O)C(C)(C)NC(=O)[C@@H](N)Cc1c[nH]cn1)[C@@H](C)O)[C@@H](C)CC)C(=O)N[C@H](C(=O)N[C@H](C(=O)N[C@@H](CCC(=O)O)C(=O)NCC(=O)NCC(N)=O)C(C)C)C(C)C)C(=O)O [compound 457] (H-H[Aib]EGS[αMeF]TSDK([AEEA-AEEA-γGlu-Lauroyl])SSYLEGEK([AEEA-AEEA-γGlu-Lauroyl])A[αMeK]EFIAK([AEEA-AEEA-γGlu-Lauroyl])VVEGG-NH2; N-terminus assumed),142,9.90,9.81
CCCCCCCCCCCC(=O)N[C@@H](CCC(=O)NCCOCCOCC(=O)NCCOCCOCC(=O)NCCCC[C@H](NC(=O)[C@H](C)NC(=O)[C@@H](NC(=O)[C@H](Cc1ccccc1)NC(=O)[C@H](CCC(=O)O)NC(=O)[C@](C)(CCCCN)NC(=O)[C@H](C)NC(=O)[C@H](C)NC(=O)[C@H](CCC(=O)O)NC(=O)[C@H](CCCCNC(=O)COCCOCCNC(=O)COCCOCCNC(=O)CC[C@H](NC(=O)CCCCCCCCCCC)C(=O)O)NC(=O)[C@H](CCC(=O)O)NC(=O)[C@H](CC(C)C)NC(=O)[C@H](CCCCNC(=O)COCCOCCNC(=O)COCCOCCNC(=O)CC[C@H](NC(=O)CCCCCCCCCCC)C(=O)O)NC(=O)[C@H](CO)NC(=O)[C@](C)(CO)NC(=O)[C@@H](NC(=O)[C@H](CC(=O)O)NC(=O)[C@H](CO)NC(=O)[C@@H](NC(=O)[C@](C)(Cc1ccccc1)NC(=O)[C@H](CO)NC(=O)CNC(=O)[C@H](CCC(=O)O)NC(=O)C(C)(C)NC(=O)[C@@H](N)Cc1c[nH]cn1)[C@@H](C)O)C(C)C)[C@@H](C)CC)C(=O)N[C@H](C(=O)N[C@H](C(=O)N[C@@H](CCC(=O)O)C(=O)NCC(=O)NCC(N)=O)C(C)C)C(C)C)C(=O)O [compound 463] (H-H[Aib]EGS[αMeF]TSDV[αMeS]SK([AEEA-AEEA-γGlu-Lauroyl])LEK([AEEA-AEEA-γGlu-Lauroyl])EAA[αMeK]EFIAK([AEEA-AEEA-γGlu-Lauroyl])VVEGG-NH2; N-terminus assumed),82,10.16,10.03
CCCCCCCCCCCC(=O)N[C@@H](CCC(=O)NCCOCCOCC(=O)NCCOCCOCC(=O)NCCCC[C@H](NC(=O)CNC(=O)[C@H](CCC(=O)O)NC(=O)[C@H](CC(C)C)NC(=O)[C@H](Cc1ccc(O)cc1)NC(=O)[C@H](CO)NC(=O)[C@H](CO)NC(=O)[C@H](CCCCNC(=O)COCCOCCNC(=O)COCCOCCNC(=O)CC[C@H](NC(=O)CCCCCCCCCCC)C(=O)O)NC(=O)[C@H](CC(=O)O)NC(=O)[C@H](CO)NC(=O)[C@@H](NC(=O)[C@](C)(Cc1ccccc1)NC(=O)[C@H](CO)NC(=O)CNC(=O)[C@H](CCC(=O)O)NC(=O)C(C)(C)NC(=O)[C@@H](N)Cc1c[nH]cn1)[C@@H](C)O)C(=O)N[C@@H](C)C(=O)N[C@@H](C)C(=O)N[C@@](C)(CCCCN)C(=O)N[C@@H](CCC(=O)O)C(=O)N[C@@H](Cc1ccccc1)C(=O)N[C@H](C(=O)N[C@@H](C)C(=O)N[C@@H](Cc1ccccc1)C(=O)N[C@@H](CCCCNC(=O)COCCOCCNC(=O)COCCOCCNC(=O)CC[C@H](NC(=O)CCCCCCCCCCC)C(=O)O)C(=O)N[C@H](C(=O)N[C@@H](CCC(=O)O)C(=O)NCC(=O)NCC(N)=O)C(C)C)[C@@H](C)CC)C(=O)O [compound 472] (H-H[Aib]EGS[αMeF]TSDK([AEEA-AEEA-γGlu-Lauroyl])SSYLEGK([AEEA-AEEA-γGlu-Lauroyl])AA[αMeK]EFIAFK([AEEA-AEEA-γGlu-Lauroyl])VEGG-NH2; N-terminus assumed),287,,
CCCCCCCCCCCC(=O)N[C@@H](CCC(=O)NCCOCCOCC(=O)NCCOCCOCC(=O)NCCCC[C@H](NC(=O)[C@H](CC(=O)O)NC(=O)[C@H](CO)NC(=O)[C@@H](NC(=O)[C@](C)(Cc1ccccc1)NC(=O)[C@H](CO)NC(=O)CNC(=O)[C@H](CCC(=O)O)NC(=O)C(C)(C)NC(=O)[C@@H](N)Cc1c[nH]cn1)[C@@H](C)O)C(=O)N[C@@H](CO)C(=O)N[C@@H](CO)C(=O)N[C@@H](Cc1ccc(O)cc1)C(=O)N[C@@H](CC(C)C)C(=O)N[C@@H](CCC(=O)O)C(=O)NCC(=O)N[C@@H](CCC(=O)O)C(=O)N[C@@H](C)C(=O)N[C@@H](C)C(=O)N[C@@](C)(CCCCN)C(=O)N[C@@H](CCCCNC(=O)COCCOCCNC(=O)COCCOCCNC(=O)CC[C@H](NC(=O)CCCCCCCCCCC)C(=O)O)C(=O)N[C@@H](Cc1ccccc1)C(=O)N[C@H](C(=O)N[C@@H](C)C(=O)N[C@@H](Cc1ccccc1)C(=O)N[C@@H](CCCCNC(=O)COCCOCCNC(=O)COCCOCCNC(=O)CC[C@H](NC(=O)CCCCCCCCCCC)C(=O)O)C(=O)N[C@H](C(=O)N[C@@H](CCC(=O)O)C(=O)NCC(=O)NCC(N)=O)C(C)C)[C@@H](C)CC)C(=O)O [compound 474] (H-H[Aib]EGS[αMeF]TSDK([AEEA-AEEA-γGlu-Lauroyl])SSYLEGEAA[αMeK]K([AEEA-AEEA-γGlu-Lauroyl])FIAFK([AEEA-AEEA-γGlu-Lauroyl])VEGG-NH2),290,,

# Now from value to molecule:
EC50 [pM],pEC50 [1],pEC50 [2],Structure (SMILES)
57.5,,,CCCCCCCCCCCC(=O)N[C@@H](CCC(=O)NCCOCCOCC(=O)NCCOCCOCC(=O)NCCCC[C@H](NC(=O)CNC(=O)[C@H](CCC(=O)O)NC(=O)[C@H](CC(C)C)NC(=O)[C@H](CCCCNC(=O)COCCOCCNC(=O)COCCOCCNC(=O)CC[C@H](NC(=O)CCCCCCCCCCC)C(=O)O)NC(=O)[C@H](CO)NC(=O)[C@](C)(CO)NC(=O)[C@@H](NC(=O)[C@H](CC(=O)O)NC(=O)[C@H](CO)NC(=O)[C@@H](NC(=O)[C@](C)(Cc1ccccc1)NC(=O)[C@H](CO)NC(=O)CNC(=O)[C@H](CCC(=O)O)NC(=O)C(C)(C)NC(=O)[C@@H](N)Cc1c[nH]cn1)[C@@H](C)O)C(C)C)C(=O)N[C@@H](C)C(=O)N[C@@H](C)C(=O)N[C@@](C)(CCCCN)C(=O)N[C@@H](CCC(=O)O)C(=O)N[C@@H](Cc1ccccc1)C(=O)N[C@H](C(=O)N[C@@H](C)C(=O)N[C@@H](Cc1ccccc1)C(=O)N[C@@H](CCCCNC(=O)COCCOCCNC(=O)COCCOCCNC(=O)CC[C@H](NC(=O)CCCCCCCCCCC)C(=O)O)C(=O)N[C@H](C(=O)N[C@@H](CCC(=O)O)C(=O)NCC(=O)NCC(N)=O)C(C)C)[C@@H](C)CC)C(=O)O [compound 480] (H-H[Aib]EGS[αMeF]TSDV[αMeS]SK([AEEA-AEEA-γGlu-Lauroyl])LEGK([AEEA-AEEA-γGlu-Lauroyl])AA[αMeK]EFIAFK([AEEA-AEEA-γGlu-Lauroyl])VEGG-NH2; N-terminus assumed)
143,,,CCCCCCCCCCCC(=O)N[C@@H](CCC(=O)NCCOCCOCC(=O)NCCOCCOCC(=O)NCCCC[C@H](NC(=O)[C@H](CCC(=O)O)NC(=O)CNC(=O)[C@H](CCC(=O)O)NC(=O)[C@H](CC(C)C)NC(=O)[C@H](CCCCNC(=O)COCCOCCNC(=O)COCCOCCNC(=O)CC[C@H](NC(=O)CCCCCCCCCCC)C(=O)O)NC(=O)[C@H](CO)NC(=O)[C@](C)(CO)NC(=O)[C@@H](NC(=O)[C@H](CC(=O)O)NC(=O)[C@H](CO)NC(=O)[C@@H](NC(=O)[C@](C)(Cc1ccccc1)NC(=O)[C@H](CO)NC(=O)CNC(=O)[C@H](CCC(=O)O)NC(=O)C(C)(C)NC(=O)[C@@H](N)Cc1c[nH]cn1)[C@@H](C)O)C(C)C)C(=O)N[C@@H](C)C(=O)N[C@@](C)(CCCCN)C(=O)N[C@@H](CCC(=O)O)C(=O)N[C@@H](Cc1ccccc1)C(=O)N[C@H](C(=O)N[C@@H](C)C(=O)N[C@@H](Cc1ccccc1)C(=O)N[C@@H](CCCCNC(=O)COCCOCCNC(=O)COCCOCCNC(=O)CC[C@H](NC(=O)CCCCCCCCCCC)C(=O)O)C(=O)N[C@H](C(=O)N[C@@H](CCC(=O)O)C(=O)NCC(=O)NCC(N)=O)C(C)C)[C@@H](C)CC)C(=O)O [compound 481] (H-H[Aib]EGS[αMeF]TSDV[αMeS]SK([AEEA-AEEA-γGlu-Lauroyl])LEGEK([AEEA-AEEA-γGlu-Lauroyl])A[αMeK]EFIAFK([AEEA-AEEA-γGlu-Lauroyl])VEGG-NH2)
